Source: PubChem BioAssay (NCI)
Where “and” joins values, the source holds several entries; their conditions need not be identical. Equal entries are not always repeated.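 Cells were grown in 96-well plates and exposed to each compound for 48 hours at five concentrations; endpoints were interpolated linearly between bracketing concentrations, or set to the highest concentration if not reached. Here, GI50 denotes the concentration required for 50% inhibition of growth. TGI is the concentration that stops growth completely.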

What was measured:
Assay in all cases: DTP human tumour cell line panel, 48 h
UACC-257 melanoma = system: UACC-257 melanoma
SR leukemia = system: SR leukemia
ACHN renal = system: ACHN renal
OVCAR-3 ovarian = system: OVCAR-3 ovarian
SK-MEL-2 melanoma = system: SK-MEL-2 melanoma
786-0 renal = system: 786-0 renal
SNB-19 CNS = system: SNB-19 CNS
M14 melanoma = system: M14 melanoma
HCT-15 colon = system: HCT-15 colon
T-47D breast = system: T-47D breast

Row | SMILES | TGI (UACC-257 melanoma) | TGI (SR leukemia) | TGI (ACHN renal) | TGI (OVCAR-3 ovarian) | TGI (SK-MEL-2 melanoma) | TGI (786-0 renal) | TGI (SNB-19 CNS) | TGI (M14 melanoma) | TGI (HCT-15 colon) | TGI (T-47D breast) | GI50 (UACC-257 melanoma) | GI50 (ACHN renal) | GI50 (OVCAR-3 ovarian) | GI50 (HCT-15 colon) | GI50 (T-47D breast) | GI50 (SK-MEL-2 melanoma) | GI50 (786-0 renal) | GI50 (SNB-19 CNS) | GI50 (M14 melanoma) | GI50 (SR leukemia)
1 | CCOC(=O)C1=C(Nc2cccc3ccccc23)OCC1=O | > 100 µM | > 100 µM | > 100 µM | > 100 µM | > 100 µM | > 100 µM | > 100 µM | > 100 µM | – | – | – | – | – | – | – | – | – | – | – | –
2 | CCCCCC/C=C\CCCCCCCCCc1cccc(OC)c1O | > 100 µM | – | > 100 µM | – | > 100 µM | > 100 µM | > 100 µM | > 100 µM | > 100 µM | > 100 µM | – | – | – | – | – | – | – | – | – | –
3 | C#CCOCn1cnc2c(N)ncnc21 | > 100 µM | > 100 µM | > 100 µM | > 100 µM | > 100 µM | > 100 µM | > 100 µM | > 100 µM | – | – | – | – | – | – | – | – | – | – | – | –
4 | Cc1c(-c2cc(-c3ccccc3)n[nH]c2=O)c2ccccc2n1C | > 100 µM | > 100 µM | > 100 µM | > 100 µM | > 100 µM | > 100 µM | > 100 µM | > 100 µM | > 100 µM | – | – | – | – | – | – | – | – | – | – | –
5 | CC(C)(C)c1cc(C#N)c2c(c1)C(=O)OC2(c1ccccc1)c1ccccc1C#N (stereo unspecified) | > 100 µM | > 100 µM | > 100 µM | > 100 µM | > 100 µM | > 100 µM | > 100 µM | > 100 µM | > 100 µM | – | – | – | – | – | – | – | – | – | – | –
6 | O=C(O)c1ccccc1C(=O)Nc1cc2c(cc1Br)-c1ccccc1C2=O | > 100 µM | – | > 100 µM | > 100 µM | > 100 µM | > 100 µM | > 100 µM | > 100 µM | > 100 µM | > 100 µM | – | – | – | – | – | – | – | – | – | –
7 | Nc1nc(N)c2cc(S(=O)(=O)c3ccccc3)ccc2n1 | > 100 µM | – | > 100 µM | > 100 µM | > 100 µM | > 100 µM | > 100 µM | > 100 µM | > 100 µM | > 100 µM | 14.9 µM | 3.27 µM | 5.68 µM | 1.75 µM | 9.57 µM | 25.3 µM | 1.01 µM | 6.84 µM | 0.506 µM | –
8 | CN1CCC(n2cnc(-c3ccc(F)cc3)c2-c2ccnc(Nc3ccccc3)n2)CC1 | 9.25 µM | – | > 25 µM | > 25 µM | > 25 µM | > 25 µM | > 25 µM | 14.7 µM | > 25 µM | > 25 µM | 4.22 µM | 1.14 µM | 7.65 µM | 6.22 µM | 6.85 µM | 11.3 µM | 8.4 µM | 16.1 µM | 5.58 µM | –
9 | C#CCn1c2c(c3ccccc3c1=O)C(=O)c1ccccc1-2 | > 100 µM | > 100 µM | – | 29.6 µM | > 100 µM | 32 µM | – | > 100 µM | > 100 µM | 69.4 µM | – | – | – | – | – | – | – | – | – | –
10 | N#Cc1cc2c(=S)[nH]c(=S)[nH]c2nc1SCc1ccccc1 | > 100 µM | > 100 µM | > 100 µM | > 100 µM | > 100 µM | > 100 µM | > 100 µM | > 100 µM | > 100 µM | – | 47.4 µM | 27.4 µM | 65.5 µM | 33.4 µM | – | 66.7 µM | 28.1 µM | > 100 µM | 58.2 µM | 41.3 µM
11 | COc1ccccc1NC(=O)C1=C(C)NC(C)=C(C(=O)Nc2ccccc2OC)C1c1ccc(C2C(C(=O)Nc3ccccc3OC)=C(C)NC(C)=C2C(=O)Nc2ccccc2OC)cc1 | 6.17 µM | 9.93 µM | 10 µM | 6.08 µM | 5.77 µM | 4.22 µM | 12.5 µM | 3.34 µM | 7.49 µM | – | – | – | – | – | – | – | – | – | – | –
12 | CNC(=O)NCCCCC(NC(=O)OCc1ccccc1)C(=O)OCc1ccccc1 (stereo unspecified) | 34.5 µM | 61.4 µM | 33.8 µM | 32.1 µM | 61.1 µM | 32.2 µM | > 100 µM | 31.3 µM | > 100 µM | – | – | – | – | – | – | – | – | – | – | –
13 | CCN(CC)CCOc1ccccc1-n1c(C)ccc1-c1ccccc1 | 31.8 µM | – | 30.3 µM | 30.1 µM | – | 31.8 µM | 31.9 µM | 34.2 µM | 28.2 µM | 34.7 µM | 16.2 µM | 15.5 µM | 15.6 µM | 12.6 µM | 15.7 µM | – | 17.1 µM | 15.7 µM | 17 µM | –
14 | O=C(Cc1ccc(-c2ccc(OCCN3CCOCC3)cc2)cn1)NCc1ccccc1 | 94.9 µM and > 10 µM | – | > 100 µM | – | > 100 µM | > 100 µM | > 100 µM | 1.76 µM | > 100 µM | 55.9 µM and > 10 µM | 0.112 µM and 0.711 µM | 0.0857 µM and 0.0811 µM | 0.0352 µM | 0.0294 µM and 0.0387 µM | – | 0.105 µM and 0.06 µM | 0.0675 µM and 0.0857 µM | 0.0528 µM and 0.0448 µM | 0.0285 µM | –
15 | CCN1C(=O)N[C@H]2[C@@H]3NC(=O)c4ccc(Cl)n4[C@@H]3C[C@]21O | – | 0.983 µM | 12.4 µM | 10.3 µM | 1.21 µM | 9.06 µM | 9.25 µM | 2.66 µM | 15.6 µM | 0.933 µM | – | 1.5 µM | 0.542 µM | 1.66 µM | 0.222 µM | 0.301 µM | 0.902 µM | 0.31 µM | 0.352 µM | 0.257 µM
16 | COc1cc2ccnc(-c3n[nH]c4cc(OC)c(OC)cc34)c2cc1OC | > 100 µM | > 100 µM | > 100 µM | > 100 µM | > 100 µM | > 100 µM | > 100 µM | > 100 µM | > 100 µM | – | – | – | – | – | – | – | – | – | – | –
17 | O=C1c2ccccc2-c2c1c1ccc([N+](=O)[O-])cc1c(=O)n2CCN1CCOCC1 | – | > 100 µM | > 100 µM | > 100 µM | > 100 µM | > 100 µM | > 100 µM | > 100 µM | > 100 µM | > 100 µM | – | 33.4 µM | > 100 µM | > 100 µM | 78.4 µM | > 100 µM | > 100 µM | 79.2 µM | > 100 µM | 15.5 µM
18 | CC[C@H](C)C(=O)O[C@H]1C[C@@H](C)C=C2C=C[C@H](C)[C@H](CC[C@@H]3C[C@@H](O)CC(=O)O3)[C@H]21 | > 100 µM | 17.3 µM and 25.4 µM and > 30 µM | 29.8 µM and 6.03 µM and 23.4 µM | > 100 µM | 8.32 µM and 9.48 µM and > 30 µM | > 100 µM and 20.8 µM and > 30 µM | – | > 100 µM | > 100 µM | > 100 µM | 32.5 µM and > 46.2 µM | 3.43 µM and 1.38 µM | 16.2 µM and 25.2 µM | 5.46 µM and 1.47 µM | 32.5 µM and 19.6 µM | 1.7 µM and 1.12 µM | 12.9 µM and 6.14 µM | – | 6.25 µM and 7.89 µM | 3 µM and 3.5 µM
